Legend:
[1] = system: human smooth muscle cell migration; test: Human smooth muscle cell migration toward plasma from MI patients (modified Boyden chamber); format: cell-based; conditions: for synergy with antioxidant on the inhibition of human smooth muscle cell migration: garlic ingredients 1 μM each plus ascorbic acid 3 μM, FIG. 5; for effect on human smooth muscle cell migration toward plasma from MI patients: antioxidants alone, 3 μM each, FIG. 3
Method: Graph showing the modified Boyden chamber used to examine the effect of garlic ingredients, antioxidants, and combinations on human smooth muscle cell migration toward plasma obtained from acute myocardial infarction patients (MI) during balloon angioplasty and stent coronary intervention.
The procedure is as follow: 20 μl plasma was placed in the bottom chamber (A), smooth muscle suspension 1×10^6 cells in 5 μl with or without the various garlic active ingredients, antioxidants or combinations were placed in the top chamber (B). The chamber B was fitted over chamber A, covered and placed in a CO2 (5%)/O2 (95%) incubator for 22 hours at 37° C. The filter from chamber B was taken out of the chamber and the cells on the top were scraped off using a cell scraper. The filter was placed in formaldehyde, Triton X100, washing buffer solution, stained with Rhodamine phloyden, and then a washing solution as shown in station C (front view) and D (side view). The filter was then dried and put in a fluorescence plate reader to read the degree of fluorescence.

HUVEC = test: FGF2-induced endothelial cell tube formation on Matrigel; format: cell-based, human
Method: For the different in vitro assays human smooth muscle cells and human umbilical vein endothelial (HUVEC) cells were obtained from (Clonetics, Walkersville, Md.). Endothelial cells (EC) were grown to 80-90% confluence in Endothelial Growth Medium (EGM) containing hEGF 10 ng/ml, hydrocortisone […], gentamicin […], amphotercin-B 50 ug/ml, Blood Brain Extract 0.012 mg/ml and 2% Fetal Bovine Serum equilibrated with 95% air/5% CO2 at 37° C. HUVEC cells will be serially passed in Endothelial Growth in cell culture flasks coated with gelatin 0.2%, (Sigma, St. Louis, Mo.). Confluent cultures of endothelial cells between the 3rd and 6th passages were washes with HBSS and harvested using 0.025% trypsin/0.01% EDTA and counted by hemacytometer. […]
Microscopic Analysis of Endothetial Cell Tube Formation: […] Digital images of microtiter well sections were collected using a 3-CCD color video camera system ([…], New York, N.Y.) and analyzed with the Image-Pro Plus software (Media Cybernetics, Silver Spring, Md.). The area and major axis length of stained cells having a tubular morphology on the Matrigel surface counted from 5 images/well. Area data is expressed in units of 10^4 square microns and length data is expressed as length/area in units of mm/mm^2. […]

[2] = system: bFGF-induced angiogenesis on the CAM; test: FGF2 (bFGF)-induced angiogenesis in the chick chorioallantoic membrane (CAM) model; format: in vivo
Method: In Vivo Angiogenesis: Ten-day old chick embryos were purchased from Spafas, Inc. (Preston, Conn.) and were incubated at 37° with 55% humidity generally referred to as chick chorioallantoic membrane (CAM) model. A small hole was punctured in the shell concealing the air sac with a hypodermic needle. A second hole was punctured in the shell on the broadside of the egg directly over an avascular portion of the embryonic membrane, as observed during candling. A false air sac was created beneath the second hole by the application of negative pressure to the first hole, which caused the CAM to separate form the shell. A window, approximately 1.0 cm2, was cut the in the shell over the dropped CAM with the use of a small crafts grinding wheel (Dermal, Division of Emerson Electric Company (Racine, Wis.) which allowed direct access to the underlying CAM.
Filter disks of #1 filter paper (Whatman International, United Kingdom) were soaked in 3 mg/ml cortisone acetate (Sigma, St. Louis, Mo.) in a solution of 95% ethanol and water and subsequently air dried under sterile conditions. […] Blood vessel branch points in the 5 mm filter disk area were counted at 30× magnification in a blinded fashion as a size-independent quantitative indicator of vascular sprouting in response to growth factors. As angiogenesis is characterized by the sprouting of new vessels in response to growth factors, counting blood vessel branch points is a useful quantitative means of obtaining an angiogenic index. […] Data was evaluated in terms of average number of blood vessel branch points per treatment group±standard deviation of measurement. […]
Microscopic Analysis of CAM Sections: CAM tissue directly beneath FGF2-saturated filter disk was resected from embryos treated 48 hours prior with compounds or controls. […] Digital images of CAM sections adjacent to filters were collected using a 3-CCD color video camera system (Toshiba America, New York, N.Y.) and analyzed with the Image-Pro Plus software (Media Cybernetics, Silver Spring, Md.). […]

[3] = system: tumor growth in the CAM model; test: Chick chorioallantoic membrane tumor assay model; format: in vivo; conditions: different types of tumor; by inhibiting tumor-induced angiogenesis
Method: In addition to the angiogenesis assays described above where the effect of the garlic sulfur containing ingredient Alliin±antioxidants were evaluated, the anti-tumor efficacy for Alliin+antioxidants were evaluated as well. Ten million tumor cells were placed on the surface of each CAM and were cultured for one week. The resulting tumors were excised and cut into 50 mg fragments. Cheresh et al., Cell 58: 945-953 (1989), Brooks et al., J. Cell Biol., 122:1351 (1993) and as described herein. These fragments were placed on additional CAMs and treated topically the following day with 0.11 mg in 25 μl of Alliin with and without anti-oxidant or saline. Forty eight hours later, CAMs were excised from the egg and the number of blood vessels entering the tumors were counted (as vessel branch points).
Data presented as mean blood vessel number per treatment group (+/− standard error of measurement). Each treatment group incorporated at least ten tumors per experiment. Representative tumors were photographed at 10× magnification. Tumors were then excised from the egg and tumor weights were determined for each tumor. Data presented as mean tumor weight per treatment group (+/− standard error of measurement). Statistical analyses were performed using Student's t-test.

Compound: C=CCSSCC=C [allyl disulfide]
- synergy with antioxidant on the inhibition of human smooth muscle cell migration [1]: synergy

Compound: O=C1O[C@H]([C@@H](O)CO)C(O)=C1O [ascorbic acid]
- effect on human smooth muscle cell migration toward plasma from MI patients [1]: lack of effect

Compound: Alliin
- efficacy on FGF2-induced EC tube formation (HUVEC; Alliin ± antioxidants, FIG. 10, n=6): Concentration-dependent efficacy
- inhibition of cytokine stimulated tube formation (HUVEC; HUVEC, FGF2 50 ng/ml, alliin 0-0.011 mg): 90-100%
- synergy with antioxidant on the inhibition of human smooth muscle cell migration [1]: synergy
- inhibition of smooth muscle cell migration toward plasma from MI subjects ([1]; qualitative, micrographs treated vs untreated, FIG. 4): Inhibition of smooth muscle cell migration
- efficacy on FGF2-induced angiogenesis in the CAM model ([2]; Alliin ± antioxidants, FIG. 11B, n=6): Dose-dependent efficacy
- blockade of bFGF-induced angiogenesis on the CAM ([2]; applied to filter disk or injected intravenously 24 h after bFGF): at least 92+/−10%
- inhibition of growth of new blood vessels induced by bFGF (vessel branch points) ([2]; applied to the growth factor saturated filter 24 h after bFGF, CAMs excised after three days): 92 +/−10%
- tumor growth in the CAM model [3]: inhibited

Compound: ethylene diphenyl urea [EDU]
- effect on human smooth muscle cell migration toward plasma from MI patients [1]: lack of effect
